Laboratory results from patent US12319652B2, “Salts and solid forms of (R)-1-(5-methoxy-1H-indol-1-yl)-N,N-dimethylpropan-2-amine” (priority 2021, dated 2025).

Legend:
[1] = Dynamic vapor sorption (DVS); assay type: physicochemical; details: for DVS isotherm type / hygroscopicity: 0 to 90 to 0% RH
Experimental: There are two main methods to use, one is by time where the equilibration is given by a fixed time, i.e., 1 hour per step and is appropriate for an unknown phase. The second, is by mass per time unit (dm/dt) of 0.002%/min; that is when the difference in weight is less than 0.002%, the instrument moves onto the next step. For unknown hygroscopicity, the method by time is indicated because it gives an idea of water affinity without wasting much time. Ideally the analyses are repeated using the mass equilibration method to confirm. By experience for hygroscopic samples, the analysis can continue for days. For non-hygroscopic samples the difference between the two methods may not be significant.
Consequently, amorphous batch 1 was analyzed by the fixed time method and once compound 1 fumarate crystalline polymorphic Form A was generated the analyses was repeated as mass per unit time equilibrated @dm/dt ([…]) and is given below (refer to FIG. 12).
(§1) The moisture sorption properties of the feed API were analysed by DVS Intrinsic instrument (Surface Measurement System). Approximately 20 to 50 mg of API was weighed onto an aluminium pan and loaded into the instrument equilibrated at 25° C. The sample was equilibrated under a dry atmosphere (0% relative humidity) for 60 minutes, before increasing the humidity from 0% to 30% at 5%4 step increment and from 30% to 90% at 10% step increment. A desorption cycle was also applied from 90% to 30% (10% step decrement) and from 30% to 0% (5% step decrement). A rate of change in mass per time unit (dm/dt) of 0.002%/min was set as the equilibrium parameter. Kinetic and isotherm graphs were calculated.
Specimens were equilibrated at 0% RH for 60 min, prior to DVS analyses (stepped increment % RH up to 90% RH and stepped decrement % RH down to 0% RH.
as §1, with “5%” for “5%4”

[2] = Solubility determinations in SIF buffers (FaSSIF, FeSSIF, FaSSGF); assay type: physicochemical; details: FaSSIF, FeSSIF and FaSSGF, 37° C., 24 h, concentration tested 30 mg/ml
Summary of the method: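 Salt forms suspended at 30 mg/ml in FaSSIF, FeSSIF or FaSSGF at 37° C. for 24 h, pH kept in range with 1 M HCl or NaOH. Supernatants sampled at 1, 3, 6 and 24 h, centrifuged and quantified by HPLC as compound 1 free base against amorphous compound 1 calibrants; pellets checked by XRPD for form change.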

[3] = assay type: physicochemical; details: 10 days; listed as compound 1·HCl (Form A)
Experimental: Equilibrium Humidity Evaluation (40° C./75% RH for 10 Days)
100 mg portions of compound 1 salts (for inputs see table below) were placed in the relevant open vials. The powders were finely divided and distributed evenly over the base of the vial, such that equal material coverage across the panel was observed. These samples were then maintained 40°C. under 75% RH. The samples were sub-sampled at intervals of 5 and 10 days and analysed by ^1H NMR, HPLC, XRPD, DSC, TGA and PLM, for evidence of phase change or chemical degradation (FIG. 269-297).

[4] = Equilibrium humidity evaluation of crystalline compound 1 HCl Form A (95% RH/20° C.); assay type: physicochemical; details: for XRPD (t = 0) / XRPD (t = 5 d) / XRPD (t = 10 d): 95% RH @ 20° C.; for DSC onset / XRPD: t = 10 days, 95 % RH @ 20° C.
Experimental: The stability of crystalline compound 1 HCl Form A was evaluated. Absorbent compound 1·Cl (Form A), (100 mg) was maintained, open-capped at 95% RH/20° C. and monitored at t=0, t=5 d and t=10 d, time points.
While absorbent Compound 1 HCl Form A), (100 mg) was placed open-capped inside double, cable-tied, electrostatic polythene bags (to mimic a typical packaging configuration) and placed inside the same humidity chamber at 95% RH at 20° C. and monitored at t=0, t=5 d and t=10 d time points. Stability of compound 1·HCl (Form A) at 40° C./75% RH was examined as part of the salt screen, and was stable over 10 d.

[5] = Heat-up/cool-down crystallization screen of Compound 1 HCl
Experimental: A heat up/cool down crystallization screen was performed. An compound 1 HCl Form A was used as input material. […]

[6] = Amorphous forms and thermal study (glass temperature Tg by DSC/TGA); assay type: physicochemical
[7] = 2-Propanol 3.0 vol + Water 75 μl
[8] = Chlorobenzene 3.0 vol + MeOH 175 μl
[9] = Ethyl formate 3.0 vol + MeOH 225 μl
[10] = Isopropyl acetate 3.0 vol + IPA 3725 μl
[11] = Nitromethane 3.0 vol + MeOH 50 μl
[12] = Double polyethylene bagged, open vial

COc1ccc2c(ccn2C[C@@H](C)N(C)C)c1.Cl [Crystalline compound 1 HCl Form A]
DVS isotherm type / hygroscopicity ([1]; listed as Compound 1·HCl Form A): slightly hygroscopic
DVS isotherm type / hygroscopicity ([1]; listed as crystalline compound 1 HCl Form A): Slightly hygroscopic
DVS mass change at 0.0% RH ([1]; desorption step, dm/dt <0.002%): 0.0239%
DVS mass change at 5.0% RH ([1]; desorption step, dm/dt <0.002%): 0.0344%
DVS mass change at 10.0% RH ([1]; desorption step, dm/dt <0.002%): 0.0455%
DVS mass change at 15.0% RH ([1]; desorption step, dm/dt <0.002%): 0.0547%
DVS mass change at 20.0% RH ([1]; desorption step, dm/dt <0.002%): 0.0648%
DVS mass change at 25.0% RH ([1]; desorption step, dm/dt <0.002%): 0.0714%
DVS mass change at 30.0% RH ([1]; desorption step, dm/dt <0.002%): 0.0860%
DVS mass change at 40.0% RH ([1]; desorption step, dm/dt <0.002%): 0.0968%
DVS mass change at 50.0% RH ([1]; desorption step, dm/dt <0.002%): 0.1367%
DVS mass change at 60.0% RH ([1]; desorption step, dm/dt <0.002%): 0.1671%
DVS mass change at 70.0% RH ([1]; desorption step, dm/dt <0.002%): 0.2211%
DVS mass change at 80.0% RH ([1]; desorption step, dm/dt <0.002%): 0.2935%
DVS desorption behaviour (hysteresis) ([1]; during desorption, listed as crystalline compound 1 HCl Form A): held on to a little water at 0% RH
DVS mass change at 0.0% RH ([1]; sorption step, dm/dt <0.002%): DVS 0 to 90 to 0% RH (dm/dt <0.002%): 0.0 (0.0011%), 5.0
DVS mass change at 5.0% RH ([1]; sorption step, dm/dt <0.002%): 0.0078%
DVS mass change at 10.0% RH ([1]; sorption step, dm/dt <0.002%): 0.0161%
DVS mass change at 15.0% RH ([1]; sorption step, dm/dt <0.002%): 0.0248%
DVS mass change at 20.0% RH ([1]; sorption step, dm/dt <0.002%): 0.0329%
DVS mass change at 25.0% RH ([1]; sorption step, dm/dt <0.002%): 0.0379%
DVS mass change at 30.0% RH ([1]; sorption step, dm/dt <0.002%): 0.0462%
DVS mass change at 40.0% RH ([1]; sorption step, dm/dt <0.002%): 0.0659%
DVS mass change at 50.0% RH ([1]; sorption step, dm/dt <0.002%): 0.0961%
DVS mass change at 60.0% RH ([1]; sorption step, dm/dt <0.002%): 0.1388%
DVS mass change at 70.0% RH ([1]; sorption step, dm/dt <0.002%): 0.1902%
DVS mass change at 80.0% RH ([1]; sorption step, dm/dt <0.002%): 0.2647%
DVS mass change at 90.0% RH ([1]; sorption step, dm/dt <0.002%): 0.4599%
Solubility in SIF buffers [2]: Solubility in SIF buffers: Soluble in all SIF buffers at 37 °C during 24 h.
Stability at 40° C./75% RH [3]: stable
Water uptake by TG analyses ([4]; 20° C./95% RH, open-capped and double bagged vials, 10-day period): did not show any water uptake

COc1ccc2c(ccn2C[C@@H](C)N(C)C)c1.Cl [compound 1 HCl Form A]
Observations (t = -, T = 70° C.) [5, 7]: Pink solution
XRPD (moist pellet) [5, 7]: Form A
XRPD (oven dried) [5, 7]: Form A
Observations (t = -, T = 70° C.) ([5]; Acetone 3.0 vol + Water 50 μl): Pink solution
XRPD (moist pellet) ([5]; Acetone 3.0 vol + Water 50 μl): Form A
XRPD (oven dried) ([5]; Acetone 3.0 vol + Water 50 μl): Form A
Observations (t = -, T = 70° C.) [5, 8]: Pink solution
XRPD (moist pellet) [5, 8]: Form A
XRPD (oven dried) [5, 8]: Form A
Observations (t = -, T = 70° C.) ([5]; DCM 3.0 vol + MeOH 125 μl): Pink solution
XRPD (moist pellet) ([5]; DCM 3.0 vol + MeOH 125 μl): Form A
XRPD (oven dried) ([5]; DCM 3.0 vol + MeOH 125 μl): Form A
Observations (t = -, T = 70° C.) ([5]; EtOAc 3.0 vol + EtOH 1375 μl): Pink solution
XRPD (moist pellet) ([5]; EtOAc 3.0 vol + EtOH 1375 μl): Form A
XRPD (oven dried) ([5]; EtOAc 3.0 vol + EtOH 1375 μl): Form A
Observations (t = -, T = 70° C.) ([5]; EtOH 3.0 vol + Water 50 μl): Pink solution
XRPD (moist pellet) ([5]; EtOH 3.0 vol + Water 50 μl): Form A
XRPD (oven dried) ([5]; EtOH 3.0 vol + Water 50 μl): Form A
Observations (t = -, T = 70° C.) [5, 9]: Pink solution
XRPD (moist pellet) [5, 9]: Form A
XRPD (oven dried) [5, 9]: Form A
Observations (t = -, T = 70° C.) [5, 10]: Suspension
XRPD (moist pellet) [5, 10]: Form A
XRPD (oven dried) [5, 10]: Form A
Observations (t = -, T = 70° C.) ([5]; MEK 3.0 vol + Water 50 μl): Pink solution
XRPD (moist pellet) ([5]; MEK 3.0 vol + Water 50 μl): Form A
XRPD (oven dried) ([5]; MEK 3.0 vol + Water 50 μl): Form A
Observations (t = -, T = 70° C.) ([5]; MeCN 3.0 vol + Water 25 μl): Pink solution
XRPD (oven dried) ([5]; MeCN 3.0 vol + Water 25 μl): Form A
Observations (t = -, T = 70° C.) ([5]; MeOH 3.0 vol + water 25 μl): Pink solution
XRPD (moist pellet) ([5]; MeOH 3.0 vol + water 25 μl): Form A
XRPD (oven dried) ([5]; MeOH 3.0 vol + water 25 μl): Form A
Observations (t = -, T = 70° C.) ([5]; MeTHF 3.0 vol + MeOH 425 μl): Pink solution
XRPD (moist pellet) ([5]; MeTHF 3.0 vol + MeOH 425 μl): Form A
XRPD (oven dried) ([5]; MeTHF 3.0 vol + MeOH 425 μl): Form A
Observations (t = -, T = 70° C.) ([5]; Methyl acetate 3.0 vol + Water 75 μl): Pink solution
Observations (t = -, T = 70° C.) [5, 11]: Pink solution
XRPD (moist pellet) [5, 11]: Form A
XRPD (oven dried) [5, 11]: Form A
Observations (t = -, T = 70° C.) ([5]; TBME 3.0 vol + MeOH 425 μl): Pink solution
XRPD (moist pellet) ([5]; TBME 3.0 vol + MeOH 425 μl): Form A
XRPD (oven dried) ([5]; TBME 3.0 vol + MeOH 425 μl): Form A
Observations (t = -, T = 70° C.) ([5]; THE 3.0 vol + Water 50 μl): Pink solution
XRPD (moist pellet) ([5]; THE 3.0 vol + Water 50 μl): Form A
XRPD (oven dried) ([5]; THE 3.0 vol + Water 50 μl): Form A
Observations (t = -, T = 70° C.) ([5]; Toluene 3.0 vol + MeOH 200 μl): Pink solution
XRPD (moist pellet) ([5]; Toluene 3.0 vol + MeOH 200 μl): Form A
XRPD (oven dried) ([5]; Toluene 3.0 vol + MeOH 200 μl): Form A
Observations (t = -, T = 70° C.) ([5]; Water 3.0 vol, no co-solvent): Pink solution
XRPD (t = 0) [4, 12]: Form A
XRPD (t = 5 d) [4, 12]: Form A
XRPD (t = 10 d) [4, 12]: Form A
DSC onset [4, 12]: 203.7 °C
XRPD [4, 12]: Form A
XRPD (t = 0) ([4]; Open vial): Form A
XRPD (t = 5 d) ([4]; Open vial): Form A
XRPD (t = 10 d) ([4]; Open vial): Form A
DSC onset ([4]; Open vial): 204.4 °C
XRPD ([4]; Open vial): Form A

COc1ccc2c(ccn2C[C@@H](C)N(C)C)c1.Cl [amorphous compound 1 HCl]
TGA % Δwt. ([6]; 206.7° C., comment: De-solvation): −18.2%,
DSC measurements, Endset ([6]; DSC thermal event Tg): 48.35 °C
DSC measurements, Integral ([6]; DSC thermal event Tg): −2.2 Jg^−1
DSC measurements, Onset ([6]; DSC thermal event Tg): 37.07 °C
DSC measurements, Peak ([6]; DSC thermal event Tg): 43.00 °C
Form Assignment ([6]; heated up past the melt event on a hot stage microscope): Amorphous
